Literature values as cited in patent US20260191871A1, “USE OF ANTIVIRAL AGENTS, COMPOSITION OF MATTER, COMBINATION PREPARATIONS/AGENTS TO TREAT CHRONIC DISEASES ASSOCIATED WITH EPSTEIN-BARR VIRUS AND OTHER HUMAN HERPES VIRUSES” (EPIPHANY BIOSCIENCES, priority 2022, published 2026).

Tests used:
[1] = compared with the other polymorphic forms (O'Neill et al. '456)
[2] = tested on: HSV-2
[3] = tested on: HSV-1
[4] = tested on: human varicella zoster virus (VZV)
[5] = tested on: Epstein-Barr virus (EBV)
[6] = tested on: human herpesvirus-6 (HHV-6)
[7] = tested on: EBV
[8] = tested on: zoster; conditions: suspension at 250, 500 and 750 mg twice daily for 7 days, zoster patients, acyclovir as control
[9] = human, multiple dosing, total daily doses of up to 6.0 g
[10] = tested on: CMV

## CCCCCCCCCCCCCCCCCC(=O)OC[C@H](CCOC(=O)[C@@H](N)C(C)C)Cn1cnc2c(=O)[nH]c(N)nc21 [Polymorph A]
[1]
  thermodynamic stability among polymorphs of valomaciclovir stearate: thermodynamically the most stable polymorph

## Nc1nc2c(ncn2C[C@H](CO)CCO)c(=O)[nH]1 [Formula H2G]
[2]
  activity against HSV-2: potent activity
[3]
  activity against HSV-1: potent activity
[4]
  activity against human varicella zoster virus (VZV): potent activity
[5]
  activity against Epstein-Barr virus (EBV): potent activity
[6]
  activity against human herpesvirus-6 (HHV-6): potent activity

## CCCCCCCCCCCCCCCCCC(=O)OC[C@H](CCOC(=O)[C@@H](N)C(C)C)Cn1cnc2c(=O)nc(N)[nH]c21 [valomaciclovir stearate, [(2R)-4-[(2S)-2-amino-3-methylbutanoyl]oxy-2-[(2-amino-6-oxo-3H-purin-9-yl)methyl]butyl]octadecanoate]
[7]
  replication of EBV: suppresses replication of EBV
[8]
  zoster lesion healing: proof-of-concept for zoster lesion healing
[9]
  safety and tolerability: safe and well tolerated
[10]
  impact on CMV: does not impact CMV
